The text below walks through data of US20250320227A1, “MACROCYCLIC OREXIN RECEPTOR AGONISTS AND USES THEREOF” (Jazz Pharmaceuticals Ireland Limited, priority 2022, published 2025).

The experiment concerns the target T1, human recombinant OX2 (hOX2) receptors expressed in CHO cells (Homo sapiens, UniProt O43614).
T1 construct: host or cells: CHO cells (hOX2-CHO)
T1 sequence (O43614 1-444): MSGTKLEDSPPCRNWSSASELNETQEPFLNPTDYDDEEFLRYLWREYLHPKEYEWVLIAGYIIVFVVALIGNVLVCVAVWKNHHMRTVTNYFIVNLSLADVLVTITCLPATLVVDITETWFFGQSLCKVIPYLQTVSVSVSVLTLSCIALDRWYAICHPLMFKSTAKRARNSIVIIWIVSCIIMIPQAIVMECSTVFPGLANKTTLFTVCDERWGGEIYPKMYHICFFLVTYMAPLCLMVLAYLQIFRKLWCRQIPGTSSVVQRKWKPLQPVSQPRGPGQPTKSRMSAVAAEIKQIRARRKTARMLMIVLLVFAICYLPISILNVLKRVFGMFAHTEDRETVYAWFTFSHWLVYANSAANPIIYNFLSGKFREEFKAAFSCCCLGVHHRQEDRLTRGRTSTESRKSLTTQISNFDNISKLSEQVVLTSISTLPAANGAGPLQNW
The experiment is described as follows: IP-1 accumulation assay (IP-One HTRF) in hOX2-CHO cells. Conditions: 60 min incubation at 37° C., mean of at least two independent experiments, read-out: EC50_OX2R Category. It counts as cell-based. As to the method:
The accumulation of Inositol-1 Monophosphate (IP-1) was measured using IP-One HTRF® Terbium cryptate based assay (Cisbio) in human recombinant OX1 (hOX1) and at OX2 (hOX2) receptors expressed in CHO cells (DiscoverX) according to the manufacturer's instructions for cells tested in suspension.
hOX1-CHO and hOX2-CHO cells were seeded into white 384-well plates at a density of 20,000 cells/well in Hank's Balanced Salt Solution (HBSS) containing 20 mM HEPES pH 7.4, 50 mM, LiCl and 0.1% and Bovine Serum Albumin (BSA).
Compounds of disclosure were tested in an 11 points concentration response curve (CRC) serially diluted in neat DMSO at 200 fold concentrations and added by Echo acoustic liquid handling (Labcyte) to the cells (0.5% DMSO final in the assay). After 60 min of incubation at 37° C. detection reagents, IP1-d2 tracer and anti-IP1-cryptate were diluted in lysis buffer according to the manufacturer's descriptions and added to the cells.
Following 60 min incubation at room temperature, time-resolved fluorescence (HTRF) was measured at 615 nm and 665 nm by Envision Multilabel reader (Perkin Elmer) and the HTRF ratio (A665/A615×10^4) was calculated.
The IP-1 accumulation response was expressed as percentage of the maximal OX-A response.
Curve fitting and EC50 estimations were carried out using a four-parameter logistic model using XLfit Software. Mean data of EC50 are calculated from at least two independent experiments performed in duplicates
(Time-resolved FRET reads energy transfer from a long-lived donor to a nearby acceptor.)
`O=C1COc2ccccc2[C@H]2CC[C@H](CC2)OCC2N1CCCC21CCCS(=O)(=O)N1` (mixture of isomers) [Example 59, Rel-(1s, 15R,16R,19s)-8,18-dioxa-11-azaspiro[tetracyclo[17.2.2.0^2,70.0^11,16]tricosane-15,3′-[1λ^6,2]thiazinane]-2 (7),3,5-triene-1′,1′,10-trione]: the EC50 was < 100 nM.
As for `O=C1COC[C@@]2(CCCN3C(=O)COc4nccc(F)c4[C@H]4CC[C@H](CC4)OC[C@H]32)N1` (single isomer, unassigned) [Example 46a], the figure is < 100 nM.
In the case of `C[C@@H]1C[C@]2(COCC(=O)N2)[C@H]2CO[C@H]3CC[C@H](CC3)c3cc(F)cc(F)c3OCC(=O)N12` (single isomer, unassigned) [Example 16b], the EC50 was > 10000 nM.
As for `O=C1COc2ccccc2[C@H]2CC[C@H](CC2)OCC2N1CCCC21COC(C(F)(F)F)N1` (mixture of isomers) [Example 70, Rel-(1′s,3S,16′R,19′s)-5-(trifluoromethyl)-8′,18′-dioxa-11′-azaspiro[1,4-oxazolidine-3,15′-tetracyclo[17.2.2.0^2,70.0^11,16]tricosane]-2′(7′),3′,5′-trien-10′-one], the figure is 100 to 1000 nM; as for `C[C@@H]1C[C@@]2(COCC(=O)N2)[C@@H]2CO[C@H]3CC[C@H](CC3)c3ccccc3OCCC(=O)N12` (single isomer, unassigned) [Example 13a], < 100 nM.
For `O=C1COCC2(CCCN3C(=O)COc4ncccc4[C@H]4CC[C@H](CC4)OCC32)N1` (stereo partly drawn) [Example 45, Rel-(1′s,3S,16′R,19′s)-8′,18′-dioxa-6′,11′-diazaspiro [morpholine-3,15′-tetracyclo[17.2.2. 0^2,^7.0^11,^16]tricosane]-2′(7′),3′,5′-triene-5,10′-dione] the value was < 100 nM.
As for `O=C1COC[C@]2(CCCN3C(=O)CCOc4c(F)cc(F)cc4[C@H]4CC[C@H](CC4)OC[C@@H]32)N1` (single isomer, unassigned) [Example 50b], the figure is 100 to 1000 nM; as for `O=C1COCC2(CCN3C(=O)CCOc4ccccc4[C@H]4CC[C@H](CC4)OCC32)N1` (mixture of isomers) [Example 1, rel-(1's,3S,16′R,19′s)-8′,18′-dioxa-12′-azaspiro[morpholine-3,15′-tetracyclo[17.2.2.0^2,70.0^12,16]tricosane]-2′(7′),3′,5′-triene-5,11′-dione], < 100 nM.
`O=C1COC[C@]2(CCCN3C(=O)CCOc4c(F)cccc4[C@H]4CC[C@H](CC4)OC[C@@H]32)N1` (single isomer, unassigned) [Example 48b]: the EC50 was < 100 nM.
As to `O=C1COC[C@]2(CCCN3C(=O)OCCOc4cccc(c4)[C@H]4CC[C@H](CC4)OC[C@@H]32)N1` (single isomer, unassigned) [Example 53b], the EC50 is > 10000 nM.
As for `CC1(C)Oc2ccccc2[C@H]2CC[C@H](CC2)OCC2N(CCCC23COCC(=O)N3)C1=O` (stereo partly drawn) [Example 36, Rel-(1′s,3S,16′R,19′s)-9′,9′-dimethyl-8′,18′-dioxa-11′-azaspiro[morpholine-3,15′-tetracyclo[17.2.2.0^2,70.0^11,16]tricosane]-2′(7′),3′,5′-triene-5,10′-dione], the figure is 100 to 1000 nM; as for `O=C1COC[C@@]2(CCCN3C(=O)COc4cc(F)cc(F)c4[C@H]4CC[C@H](CC4)OC[C@H]32)N1` (single isomer, unassigned) [Example 42a], < 100 nM; as for `O=C1COCC2(CCCN3C(=O)CCOc4cccnc4[C@H]4CC[C@H](CC4)OCC32)N1` (mixture of isomers) [Example 51, Rel-(1′s,3S,17′R,20′s)-8′,19′-dioxa-3′,12′-diazaspiro [morpholine-3,16′-tetracyclo[18.2.2. 0^2,^7.0^12,^17]tetracosane]-2′(7′),3′,5′-triene-5,11′-dione], > 10000 nM.
As for `O=C1COCC2(CCCN3C(=O)CCOc4ccccc4[C@H]4CC[C@H](CC4)OCC32)N1` (stereo partly drawn) [Example 33, Rel-(1′s,3S,17′R,20's)-8′,19′-dioxa-12′-azaspiro[morpholine-3,16′-tetracyclo-[18.2.2.0^2,70.0^12,17]tetracosane]-2′(7′),3′,5′-triene-5,11′-dione], the figure is < 100 nM; as for `O=C1COCC2(CCCN3C(=O)COc4ccccc4[C@H]4CC[C@H](CC4)OCC32)N1` (stereo partly drawn) [Example 32, Rel-(1′s,3S,16′R,19′s)-8′,18′-dioxa-11′-azaspiro[morpholine-3, 15′-tetracyclo-[17.2.2.0^2,70.0^11,16]tricosane]-2′(7′),3′,5′-triene-5,10′-dione], < 100 nM; as for `O=C1COCC2(CCCN3C(=O)OCCOc4ccccc4-c4cccc(c4F)CC32)N1` (racemic) [Example 65, Rel-(3S, 18′S)-24′-fluoro-8′,11′-dioxa-13′-azaspiro[morpholine-3,17′-tetracyclo[18.3.1.0^2,70.0^13,18]tetracosane]-1′(24′),2′(7′),3′,5′,20′,22′-hexaene-5,12′-dione], > 10000 nM.
For `C[C@@H]1CC(=O)N2CC[C@]3(COCC(=O)N3)[C@H]2CO[C@H]2CC[C@H](CC2)c2ccccc2O1` (single isomer, unassigned) [Example 4d] the value was > 10000 nM; for `C[C@@H]1CC2(COCC(=O)N2)C2Cc3cccc(c3F)-c3ccccc3CCCC(=O)N21` (mixture of isomers) [Example 28], 1000 to 10000 nM.
For the compound `O=C1COC[C@]2(CCCN3C(=O)COc4cccc(F)c4[C@H]4CC[C@H](CC4)OC[C@@H]32)N1` (single isomer, unassigned) [Example 40b], the EC50 fell in the range of 1000 to 10000 nM.
As for `C[C@H]1COc2ccccc2[C@H]2CC[C@H](CC2)OC[C@H]2N(CC[C@]23COCC(=O)N3)C1=O` (single isomer, unassigned) [Example 5b], the figure is > 10000 nM.
For `O=C1COC[C@]2(CCN3C(=O)C4(CC4)COc4cccc(F)c4[C@H]4CC[C@H](CC4)OC[C@@H]32)N1` (single isomer, unassigned) [Example 73a, (1′s,15′R,16′S,19′s)-3′-fluorodispiro [cyclopropane-1,10′-[8,18]dioxa-[12]azatetracyclo[17. 2.2.0^2,^7.0^12,^16]tricosane-15′,3″- morpholine]-2′,4′,6′-triene-5″,11′-dione], the EC50 was 1000 to 10000 nM.
For `O=C1COCC2(CCCN3C(=S)COc4ccccc4[C@H]4CC[C@H](CC4)OCC32)N1` (stereo partly drawn) [Example 66, Rel-(1′s,3S,16′R,19′s)-10′-sulfanylidene-8′,18′-dioxa-11′-azaspiro[morpholine-3,15′-tetracyclo[17.2.2.0^2,70.0^11,16]tricosane]-2′(7′),3′,5′-trien-5-one] the value was 1000 to 10000 nM.
As for `C[C@@H]1C[C@@]2(COCC(=O)N2)[C@@H]2CO[C@H]3CC[C@H](CC3)c3cc(F)ccc3OCC(=O)N12` (single isomer, unassigned) [Example 18a], the EC50 was < 100 nM.
As to `O=C1COC[C@]2(CCN3C(=O)CCOc4ccccc4[C@H]4CC[C@H](CC4)OC[C@@H]32)N1` (single isomer, unassigned) [Example 1b], the EC50 is > 10000 nM.
For `C[C@@H]1C[C@@]2(COCC(=O)N2)[C@@H]2CO[C@H]3CC[C@H](CC3)c3ccc(F)cc3OCC(=O)N12` (single isomer, unassigned) [Example 19a] the value was < 100 nM.
